# Test results published in patent US20110130380A1, “Heteroaryl Kinase Inhibitors” (priority 2009, published 2011).
# Biological target: Cdk9/cyclinT1 (Homo sapiens, UniProt P50750)
# Assay: Cdk9/cyclinT1 IMAP Protocol (fluorescence polarization kinase assay)
# Conditions: Cdk9_cyclinT1_IC50, Table V; generated using one of the two Cdk9/cyclinT1 assays (IMAP or Alpha Screen), not stated which; ATP 6 uM
# Sequence of Cdk9/cyclinT1 (P50750 whole entry): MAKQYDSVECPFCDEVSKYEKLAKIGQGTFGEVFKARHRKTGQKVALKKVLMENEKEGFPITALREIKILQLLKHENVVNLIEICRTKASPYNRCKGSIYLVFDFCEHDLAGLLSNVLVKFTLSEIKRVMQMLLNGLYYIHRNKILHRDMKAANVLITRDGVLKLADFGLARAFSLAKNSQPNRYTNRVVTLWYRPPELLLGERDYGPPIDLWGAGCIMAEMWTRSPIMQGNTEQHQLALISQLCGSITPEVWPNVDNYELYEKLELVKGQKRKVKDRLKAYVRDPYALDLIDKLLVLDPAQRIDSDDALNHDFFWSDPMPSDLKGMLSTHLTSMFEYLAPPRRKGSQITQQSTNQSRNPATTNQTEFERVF
# Sequence of Cdk9/cyclinT1 (O60563 whole entry partner): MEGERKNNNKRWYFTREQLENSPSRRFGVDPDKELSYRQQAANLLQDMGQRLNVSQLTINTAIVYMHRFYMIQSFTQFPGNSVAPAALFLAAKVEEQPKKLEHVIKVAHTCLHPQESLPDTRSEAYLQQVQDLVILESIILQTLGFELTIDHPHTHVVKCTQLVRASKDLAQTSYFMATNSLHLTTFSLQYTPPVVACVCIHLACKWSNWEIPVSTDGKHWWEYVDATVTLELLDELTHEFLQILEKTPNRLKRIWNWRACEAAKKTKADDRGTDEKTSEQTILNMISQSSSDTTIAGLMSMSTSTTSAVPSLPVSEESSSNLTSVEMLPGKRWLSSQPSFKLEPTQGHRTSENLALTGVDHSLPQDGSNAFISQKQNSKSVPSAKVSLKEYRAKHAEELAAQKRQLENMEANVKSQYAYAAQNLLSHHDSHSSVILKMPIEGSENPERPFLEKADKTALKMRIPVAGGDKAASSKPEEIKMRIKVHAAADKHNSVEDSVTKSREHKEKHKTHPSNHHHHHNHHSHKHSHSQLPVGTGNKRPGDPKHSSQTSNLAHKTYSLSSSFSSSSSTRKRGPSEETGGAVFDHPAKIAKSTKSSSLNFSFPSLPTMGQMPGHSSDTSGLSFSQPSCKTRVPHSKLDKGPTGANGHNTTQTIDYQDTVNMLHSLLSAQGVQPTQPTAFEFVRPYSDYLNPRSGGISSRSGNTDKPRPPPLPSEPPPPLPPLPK
row,SMILES,IC50 [nM]
1,"CC1(C)C[C@H](CNc2nc(-c3cc(NC(=O)[C@@H]4CCCNC4)ncc3Cl)ccc2F)CCO1 (single isomer, unassigned) [Example 215]",1
2,"O=C(Nc1cc(-c2ccc(Cl)c(NCC3CCOCC3)n2)c(Cl)cn1)[C@@H]1CCCNC1 [Example 74, (R)-Piperidine-3-carboxylic acid {5,5′-dichloro-6-[(tetrahydro-pyran-4-ylmethyl)-amino]-[2,4′]bipyridinyl-2′-yl}-amide]",< 8
3,"C[C@@H]1CC[C@@H](C(=O)Nc2cc(-c3cccc(NCC4CCOCC4)n3)c(Cl)cn2)CN1 (single isomer, unassigned) [Example 146]",1
4,"CC1(C)COC[C@H](CNc2nc(-c3cc(NC(=O)[C@@H]4CCCNC4)ncc3Cl)ccc2F)O1 (single isomer, unassigned) [Example 262]",3
5,"C[C@@H](O)CNc1cccc(-c2cc(NC(=O)[C@@H]3CCCNC3)ncc2Cl)n1 [Example 29, (R)-Piperidine-3-carboxylic acid [5′-chloro-6-((R)-2-hydroxy-propylamino)-[2,4′]bipyridinyl-2′-yl]-amide]",26
6,"O=C(Nc1cc(-c2cccc(NCC3CCOCC3)n2)c(Cl)cn1)[C@H]1CCCNC1 [Example 8, (S)-Piperidine-3-carboxylic acid {5′-chloro-6-[(tetrahydro-pyran-4-ylmethyl)-amino]-[2,4′]bipyridinyl-2′-yl}-amide]",46
7,"CC1(C)CCC(C(=O)Nc2cc(-c3ccc(F)c(NCC4CCOCC4)n3)c(Cl)cn2)CN1 (stereo not drawn) [Example 210, 6,6-Dimethyl-piperidine-3-carboxylic acid {5′-chloro-5-fluoro-6-[(tetrahydro-pyran-4-ylmethyl)-amino]-[2,4′]bipyridinyl-2′-yl}-amide]",1
8,"CNc1cccc(-c2cc(NC(=O)[C@@H]3CCCNC3)ncc2Cl)n1 [Example 21, (R)-Piperidine-3-carboxylic acid (5′-chloro-6-methylamino-[2,4′]bipyridinyl-2′-yl)-amide]",76
9,"O=C(Nc1cc(-c2cccc(NCc3ccccc3F)n2)c(Cl)cn1)[C@@H]1CCCNC1 [Example 51, (R)-Piperidine-3-carboxylic acid [5′-chloro-6-(2-fluoro-benzylamino)-[2,4′]bipyridinyl-2′-yl]-amide]",10
10,"COC(=O)N1CCC[C@H](C(=O)Nc2cc(-c3nc(N[C@H](C)C4CCOCC4)ccc3Cl)c(Cl)cn2)C1 [Example 153, (S)-3-{3,5′-Dichloro-6-[(R)-1-(tetrahydro-pyran-4-yl)-ethylamino]-[2,4′]bipyridinyl-2′-ylcarbamoyl}-piperidine-1-carboxylic acid methyl ester]",26
11,"CC1(C)CCC(C(=O)Nc2cc(-c3cccc(NCC4CCOCC4)n3)ccn2)CN1 (stereo not drawn) [Example 195, 6,6-Dimethyl-N-(6-(((tetrahydro-2H-pyran-4-yl)methyl)amino)-2,4′-bipyridin-2′-yl)piperidine-3-carboxamide]",2
12,"CS(=O)(=O)N1CCC[C@H](C(=O)Nc2cc(-c3cccc(NCC4CCCOC4)n3)c(Cl)cn2)C1 (stereo partly drawn) [Example 81, (S)-1-Methanesulfonyl-piperidine-3-carboxylic acid {5′-chloro-6-[(tetrahydro-pyran-3-ylmethyl)-amino]-[2,4′]bipyridinyl-2′-yl}-amide]",< 8
13,"CC1(C)C[C@@H](CNc2nc(-c3cc(NC(=O)[C@@H]4CCCNC4)ncc3Cl)ccc2F)CCO1 (single isomer, unassigned) [Example 216]",1
14,"O=C(Nc1cc(-c2cccc(N3CCOCC3)n2)c(Cl)cn1)[C@@H]1CCCNC1 [Example 45, (R)-Piperidine-3-carboxylic acid (5′-chloro-6-morpholin-4-yl-[2,4′]bipyridinyl-2′-yl)-amide]",154
15,"O=C(Nc1cc(-c2cccc(NCc3cccc(F)c3)n2)c(Cl)cn1)[C@@H]1CCCNC1 [Example 1, (R)-Piperidine-3-carboxylic acid [5′-chloro-6-(3-fluoro-benzylamino)-[2,4+]bipyridinyl-2′-yl]-amide]",< 8
16,"CC1(C)CC(CNc2ccc(Cl)c(-c3cc(NC(=O)[C@H]4CNCCO4)ncc3Cl)n2)CCO1 (stereo partly drawn) [Example 133, (R)-Morpholine-2-carboxylic acid {3,5′-dichloro-6-[(2,2-dimethyl-tetrahydro-pyran-4-ylmethyl)-amino]-[2,4′]bipyridinyl-2′-yl}-amide]",< 8
17,"O=C(Nc1cc(-c2cccc(NCc3ccccn3)n2)c(Cl)cn1)[C@@H]1CCCNC1 [Example 52, (R)-Piperidine-3-carboxylic acid {5′-chloro-6-[(pyridin-2-ylmethyl)-amino]-[2,4′]bipyridinyl-2′-yl}-amide]",38
18,"CO[C@H]1CNC[C@@H]1C(=O)Nc1cc(-c2cccc(NCC3CCOC(C)(C)C3)n2)c(Cl)cn1 (stereo partly drawn) [Example 151, (3S,4R)-4-Methoxy-pyrrolidine-3-carboxylic acid {5′-chloro-6-[(2,2-dimethyl-tetrahydro-pyran-4-ylmethyl)-amino]-[2,4′]bipyridinyl-2′-yl}-amide]",< 8
19,"CS(=O)(=O)N1CCC[C@H](C(=O)Nc2cc(-c3nc(NCC4CCOCC4)ccc3Cl)c(Cl)cn2)C1 [Example 108, (S)-1-Methanesulfonyl-piperidine-3-carboxylic acid {3,5′-dichloro-6-[(tetrahydro-pyran-4-ylmethyl)-amino]-[2,4′]bipyridinyl-2′-yl}-amide]",< 8
20,"C[C@H](Nc1cccc(-c2cc(NC(=O)[C@@H]3CCCNC3)ncc2Cl)n1)C1CCCCC1 [Example 77, (R)-Piperidine-3-carboxylic acid [5′-chloro-6-((S)-1-cyclohexyl-ethylamino)-[2,4′]bipyridinyl-2′-yl]-amide]",8
21,"COC(=O)N1CCC[C@@H](C(=O)Nc2cc(-c3cccc(NCC4CCOCC4)n3)c(Cl)cn2)C1 [Example 84, (R)-3-{5′-Chloro-6-[(tetrahydro-pyran-4-ylmethyl)-amino]-[2,4′]bipyridinyl-2′-ylcarbamoyl}-piperidine-1-carboxylic acid methyl ester]",419
22,"CC1(C)C[C@@H](CNc2cccc(-c3cc(NC(=O)[C@@H]4CCCNC4)ncc3Cl)n2)CCO1 (single isomer, unassigned) [Example 116, (R)-piperidine-3-carboxylic acid {5′-chloro-6-[((S)-2,2-dimethyl-tetrahydro-pyran-4-ylmethyl)-amino]-[2,4′]bipyridinyl-2′-yl}-amide or (R)-piperidine-3-carboxylic acid {5′-chloro-6-[((R)-2,2-dimethyl-tetrahydro-pyran-4-ylmethyl)-amino]-[2,4′]bipyridinyl-2′-yl}-amide]",2
23,"CO[C@H]1CNC[C@@H]1C(=O)Nc1cc(-c2cccc(NCC3C[C@@H](C)O[C@@H](C)C3)n2)c(Cl)cn1 (stereo partly drawn) [Example 171, (3S,4R)-4-Methoxy-pyrrolidine-3-carboxylic acid {5′-chloro-6-[((2R,6S)-2,6-dimethyl-tetrahydro-pyran-4-ylmethyl)-amino]-[2,4′]bipyridinyl-2′-yl}-amide]",1

# Same assay, conditions: Cdk9_cyclinT1_IC50, generated using one of the two Cdk9/cyclinT1 assays (IMAP or Alpha Screen), not specified per value; ATP 6 uM
row,SMILES,IC50 [nM]
1,"Cc1ncc(-c2cc(NC(=O)[C@@H]3CCCNC3)ncc2Cl)cc1NCC1CCOCC1 [Example 311, (R)-Piperidine-3-carboxylic acid {5′-chloro-6-methyl-5-[(tetrahydro-pyran-4-ylmethyl)-amino]-[3,4′]bipyridinyl-2′-yl}-amide]",103
